Test results from publication PMC6121621, “A Short Half-Life αIIbβ3 Antagonist ANTP266 Reduces Thrombus Formation” (International Journal of Molecular Sciences, 2018).

Molecular target: T1, integrin αIIbβ3 (Homo sapiens, UniProt P05106+P08514)
T1 construct: gene ITGA2B; Purified human integrin αIIbβ3; with integrin β3 (ITGB3, P05106)
Test: ELISA: inhibition of purified human αIIbβ[…] binding to immobilized fibrinogen

T1 sequence (P08514 32-887): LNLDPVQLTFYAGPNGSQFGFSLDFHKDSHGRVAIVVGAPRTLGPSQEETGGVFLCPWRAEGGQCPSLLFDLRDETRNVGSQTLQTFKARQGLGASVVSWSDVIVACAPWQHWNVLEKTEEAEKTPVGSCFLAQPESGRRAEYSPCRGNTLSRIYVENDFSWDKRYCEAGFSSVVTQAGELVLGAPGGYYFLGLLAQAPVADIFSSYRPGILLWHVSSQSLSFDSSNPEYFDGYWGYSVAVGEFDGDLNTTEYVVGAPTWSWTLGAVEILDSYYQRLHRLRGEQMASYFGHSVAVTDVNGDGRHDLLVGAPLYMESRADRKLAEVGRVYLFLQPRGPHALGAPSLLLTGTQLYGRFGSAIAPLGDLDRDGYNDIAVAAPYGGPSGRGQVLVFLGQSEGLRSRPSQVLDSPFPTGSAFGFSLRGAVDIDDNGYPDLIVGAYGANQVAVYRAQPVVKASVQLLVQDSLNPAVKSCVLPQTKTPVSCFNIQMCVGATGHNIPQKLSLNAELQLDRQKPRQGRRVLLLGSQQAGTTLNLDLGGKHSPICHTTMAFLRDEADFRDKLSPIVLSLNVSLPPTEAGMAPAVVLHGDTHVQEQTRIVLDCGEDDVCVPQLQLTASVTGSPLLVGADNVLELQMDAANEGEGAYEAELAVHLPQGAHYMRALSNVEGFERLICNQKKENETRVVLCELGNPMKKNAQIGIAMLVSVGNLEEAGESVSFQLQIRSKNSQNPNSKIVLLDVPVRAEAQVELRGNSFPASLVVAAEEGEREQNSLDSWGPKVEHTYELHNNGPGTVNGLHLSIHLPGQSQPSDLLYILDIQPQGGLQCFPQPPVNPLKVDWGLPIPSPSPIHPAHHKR
T1 sequence (P08514 891-1039): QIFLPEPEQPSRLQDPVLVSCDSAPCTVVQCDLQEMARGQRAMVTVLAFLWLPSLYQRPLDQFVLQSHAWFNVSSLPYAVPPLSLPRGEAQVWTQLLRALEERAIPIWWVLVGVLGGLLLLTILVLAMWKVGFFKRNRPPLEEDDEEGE
T1 sequence (P05106 27-788): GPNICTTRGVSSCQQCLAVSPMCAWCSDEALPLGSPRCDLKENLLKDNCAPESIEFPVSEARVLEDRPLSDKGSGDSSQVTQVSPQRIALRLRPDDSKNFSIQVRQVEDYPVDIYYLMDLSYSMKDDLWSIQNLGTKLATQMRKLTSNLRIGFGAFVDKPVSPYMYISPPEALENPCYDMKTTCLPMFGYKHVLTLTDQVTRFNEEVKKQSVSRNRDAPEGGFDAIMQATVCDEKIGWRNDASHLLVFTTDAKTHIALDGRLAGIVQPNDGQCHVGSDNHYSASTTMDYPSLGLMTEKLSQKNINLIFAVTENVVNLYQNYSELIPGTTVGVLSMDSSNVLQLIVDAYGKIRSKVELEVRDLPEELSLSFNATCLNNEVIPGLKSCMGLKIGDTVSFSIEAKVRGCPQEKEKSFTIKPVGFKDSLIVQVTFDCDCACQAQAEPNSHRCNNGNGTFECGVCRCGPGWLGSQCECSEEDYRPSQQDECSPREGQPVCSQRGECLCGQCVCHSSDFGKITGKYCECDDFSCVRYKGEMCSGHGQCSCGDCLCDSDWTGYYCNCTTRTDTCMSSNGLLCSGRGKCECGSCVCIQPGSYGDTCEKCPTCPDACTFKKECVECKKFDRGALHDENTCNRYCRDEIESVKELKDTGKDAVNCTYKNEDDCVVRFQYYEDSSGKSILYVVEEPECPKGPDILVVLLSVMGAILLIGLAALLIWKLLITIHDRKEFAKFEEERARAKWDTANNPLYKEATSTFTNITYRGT

**Q.** With COc1ccc(S(=O)(=O)NC(Cc2ccc3cc(OCCN4CCNCC4)ccc3c2)C(=O)O)cc1 (stereo not shown) [ANTP266, 2-((4-methoxyphenyl)sulfonamido)-3-(6-(2-(piperazin-1-yl)ethoxy)naphthalene-2-yl) propanoic acid] as the molecule, how does the IC50 read?
**A.** 0.37 µM
